In US11603349B2, “Anti-fibrotic compounds” (Certa Therapeutics Pty Ltd, priority 2017, dated 2023):
Counter-ions that a name gives are not always drawn.

How the values were obtained:
[1] = tested on: TGF-β induced [14C]-proline incorporation in rat mesangial cells; assay: [14C]-proline incorporation assay (collagen biosynthesis); type: cell-based; details: Rattus norvegicus, Mesangial cell, 44 h, inhibition of TGF-β1 (1 ng/ml) induced [14C]-proline incorporation, IRMC cells
[2] = MTS tetrazolium reduction cell viability assay; details: rat, rat mesangial cells (1097/IRMC cells), TGF-β1 stimulated, CC50 (μM), vs 1% DMSO vehicle

Structure (SMILES)	IC50 [1]	CC50 at 48 h [2]
COc1cc(/C=C/C(=O)Nc2ccccc2C(=O)O)ccc1N1CCOCC1 [Example 103, (E)-2-(3-(3-methoxy-4-morpholinophenyl)acrylamido)benzoic acid trifluoroacetic acid salt]	28 µM	265 µM
O=C(/C=C/c1ccc2c(c1)NC(=O)CO2)Nc1ccccc1C(=O)O [Example 111, (E)-2-(3-(3-oxo-3,4-dihydro-2H-benzo[b][1,4]oxazin-6-yl)acrylamido)benzoic acid]	30 µM	> 300 µM
COc1ccc(/C=C/C(=O)N2CCOc3ccccc32)c(OCCN(C)C)c1OC [Example 115, (E)-1-(2H-benzo[b][1,4]oxazin-4(3H)-yl)-3-(2-(2-(dimethylamino)ethoxy)-3,4-dimethoxyphenyl)-prop-2-en-1-one]	7.03 µM	45.4 µM
COc1ccc(/C=C/C(=O)Nc2cc(Cl)ccc2C(=O)O)c(OCCN(C)C)c1OC [Example 117, (E)-4-chloro-2-(3-(2-(2-(dimethylamino)ethoxy)-3,4-dimethoxyphenyl)acrylamido)benzoic Acid]	21.4 µM	> 300 µM
COc1cc(/C=C/C(=O)N2CCOc3ccccc32)ccc1OC1CCN(C)C1 (stereo not shown) [Example 118, (E)-1-(2H-benzo[b][1,4]oxazin-4(3H)-yl)-3-(3-methoxy-4-((1-methylpyrrolidin-3-yl)oxy)phenyl)prop-2-en-1-one]	14.3 µM	25.5 µM
COc1ccc(C2CC2C(=O)Nc2ccc(F)cc2)c(OCCN(C)C)c1OC (stereo not shown) [Example 122, 2-(2-(2-(dimethylamino)ethoxy)-3,4-dimethoxyphenyl)-N-(4-fluorophenyl)cyclopropane-1-carboxamide]	17.2 µM	234 µM
COc1ccc(/C=C/C(=O)Nc2ccccc2F)c(OCCN(C)C)c1OC [Example 127, (E)-3-(2-(2-(dimethylamino)ethoxy)-3,4-dimethoxyphenyl)-N-(2-fluorophenyl)acrylamide]	35.4 µM	82.9 µM
COc1ccc(/C=C/C(=O)Nc2ccc(F)cc2)c(OCCN(C)C)c1OC [Example 128, (E)-3-(2-(2-(dimethylamino)ethoxy)-3,4-dimethoxyphenyl)-N-(4-fluorophenyl)acrylamide trifluoroacetic acid salt]	11.5 µM	24.4 µM
COc1ccc(/C=C/C(=O)Nc2ccc(C#N)cc2)c(OCCN(C)C)c1OC [Example 129, (E)-N-(4-cyanophenyl)-3-(2-(2-(dimethylamino)ethoxy)-3,4-dimethoxyphenyl)acrylamide trifluoroacetic acid salt]	12.3 µM	28.9 µM
COc1cc(/C=C/C(=O)Nc2ccccc2F)ccc1OC1CCN(C)C1 (stereo not shown) [Example 130, (E)-N-(2-fluorophenyl)-3-(3-methoxy-4-((1-methylpyrrolidin-3-yl)oxy)phenyl)acrylamide]	15.6 µM	51.8 µM
COc1cc(/C=C/C(=O)Nc2ccc(C#N)cc2)ccc1OC1CCN(C)C1 (stereo not shown) [Example 131, (E)-N-(4-cyanophenyl)-3-(3-methoxy-4-((1-methylpyrrolidin-3-yl)oxy)phenyl)acrylamide trifluoroacetic acid salt]	21.6 µM	17.7 µM
COc1cc(/C=C/C(=O)Nc2ccc(F)cc2)ccc1OC1CCN(C)C1 (stereo not shown) [Example 132, (E)-N-(4-fluorophenyl)-3-(3-methoxy-4-((1-methylpyrrolidin-3-yl)oxy)phenyl)actylamide trifluoroacetic acid salt]	12 µM	16.6 µM
C#CCOc1ccc(C2CC2C(=O)Nc2ccc(F)cc2)cc1OC (stereo not shown) [Example 133, N-(4-fluorophenyl)-2-(3-methoxy-4-(prop-2-yn-1-yloxy)phenyl)cyclopropanecarboxamide]	23.4 µM	> 300 µM

Further lines, with some results ahead:

IC50 [1]	Structure (SMILES)	CC50 at 48 h [2]
8.44 µM	CCc1cc(/C=C/C(=O)Nc2ccccc2C(=O)O)ccc1OC [Example 105, (E)-2-(3-(3-ethyl-4-methoxyphenyl)acrylamido)benzoic acid]	79.7 µM
1.58 µM	COc1ccc(/C=C/C(=O)Nc2ccccc2C(=O)O)cc1CC1CC1 [Example 106, (E)-2-(3-(3-(cyclopropylmethyl)-4-methoxyphenyl)acrylamido)benzoic acid]	25.1 µM
40.4 µM	CN1Cc2ccc(/C=C/C(=O)Nc3ccccc3C(=O)O)cc2C1=O [Example 108, (E)-2-(3-(2-methyl-3-oxoisoindolin-5-yl)acrylamido)benzoic acid]	> 300 µM
24.3 µM	CN1C(=O)COc2cc(/C=C/C(=O)Nc3ccccc3C(=O)O)ccc21 [Example 109, (E)-2-(3-(4-methyl-3-oxo-3,4-dihydro-2H-benzo[b][1,4]oxazin-7-yl)acrylamido)benzoic Acid]	> 300 µM
13.9 µM	CN1CCOc2cc(/C=C/C(=O)Nc3ccccc3C(=O)O)ccc21 [Example 110, (E)-2-(3-(4-methyl-3,4-dihydro-2H-benzo[b][1,4]oxazin-7-yl)acrylamido)benzoic acid]	> 300 µM
13 µM	CN1C(=O)COc2ccc(/C=C/C(=O)Nc3ccccc3C(=O)O)cc21 [Example 112, (E)-2-(3-(4-methyl-3-oxo-3,4-dihydro-2H-benzo[b][1,4]oxazin-6-yl)acrylamido)benzoic acid]	> 300 µM
7.75 µM	C#CCOc1ccc(/C=C/C(=O)N2CCOc3ccccc32)cc1CC [Example 113, (E)-1-(2H-benzo[b][1,4]oxazin-4(3H)-yl)-3-(3-ethyl-4-(prop-2-yn-1-yloxy)phenyl)prop-2-en-1-one]	32.6 µM
14.3 µM	C#CCOc1ccc(/C=C/C(=O)Nc2ccccc2-n2cnc(C)n2)cc1CC [Example 114, (E)-3-(3-ethyl-4-(prop-2-yn-1-yloxy)phenyl)-N-(2-(3-methyl-1H-1,2,4-triazol-1-yl)phenyl)-acrylamide]	82 µM
24.7 µM	C#CCOc1ccc(C2CC2C(=O)N2CCOc3ccccc32)cc1OC (stereo not shown) [Example 119, (2H-benzo[b][1,4]oxazin-4(3H)-yl)(2-(3-methoxy-4-(prop-2-yn-1-yloxy)phenyl)cyclopropyl) methanone]	74.8 µM
19.3 µM	C#CCOc1ccc(/C=C/C(=O)Nc2ccccc2F)cc1CC [Example 123, (E)-3-(3-ethyl-4-(prop-2-yn-1-yloxy)phenyl)-N-(2-fluorophenyl)acrylamide]	> 300 µM
34.8 µM	C#CCOc1ccc(/C=C/C(=O)Nc2ccc(C#N)cc2)cc1CC [Example 124, (E)-N-(4-cyanophenyl)-3-(3-ethyl-4-(prop-2-yn-1-yloxy)phenyl)acrylamide]	> 300 µM
17.6 µM	C#CCOc1ccc(/C=C/C(=O)Nc2ccc(F)cc2)cc1CC [Example 125, (E)-3-(3-ethyl-4-(prop-2-yn-1-yloxy)phenyl)-N-(4-fluorophenyl)acrylamide]	> 300 µM
3.81 µM	C#CCOc1ccc(/C=C/C(=O)n2nc(O)c3ccccc32)cc1CC [Example 126, (E)-3-(3-ethyl-4-(prop-2-yn-1-yloxy)phenyl)-1-(3-hydroxy-1H-indazol-1-yl)prop-2-en-1-one]	> 27.5 µM
